Measurements from ChEMBL document CHEMBL3769327, “Emerging targets and new small molecule therapies in Parkinson's disease treatment” (Bioorg Med Chem, 2016).

What was measured:
[1] = Inhibition of human sPLA2 expressed in Escherichia coli assessed as release of [14C]oleate
[2] = tested on: UT7; assay: Induction of cell proliferation in human UT7 cells at 10 uM after 42 hrs by thymidine incorporation assay; assay type: functional
[3] = target: Sodium-dependent dopamine transporter (Homo sapiens, UniProt Q01959); assay: Inhibition of recombinant human DA transporter assessed as reduction in [3H]-DA reuptake
[4] = target: Sodium-dependent serotonin transporter (Homo sapiens, UniProt P31645); assay: Inhibition of recombinant human 5-HT transporter expressed in HEK293 cells assessed as reduction in [3H]-5-HT reuptake; assay type: cell-based
[5] = target: Sodium-dependent noradrenaline transporter (Homo sapiens, UniProt P23975); assay: Inhibition of recombinant human norepinephrine transporter assessed as reduction in [3H]-NA reuptake
[6] = target: Sodium-dependent serotonin transporter (Rattus norvegicus, UniProt P31652); assay: Inhibition of 5-HT in Wistar rat synaptosomes assessed as [3H]-5-HT reuptake by liquid scintillation counting; assay type: subcellular
[7] = target: Sodium-dependent dopamine transporter (Rattus norvegicus, UniProt P23977); assay: Inhibition of DAT in Wistar rat synaptosomes assessed as [3H]-DA reuptake by liquid scintillation counting; assay type: subcellular
[8] = Inhibition of NAT in Wistar rat synaptosomes assessed as [3H]-NA reuptake by liquid scintillation counting; assay type: subcellular
[9] = target: Voltage-gated inwardly rectifying potassium channel KCNH2 (Homo sapiens, UniProt Q12809); assay: Inhibition of human ERG channel tail current
[10] = Inhibition of recombinant human sPLA2 after 30 mins microtiter plate assay

Sodium-dependent dopamine transporter (Rattus norvegicus, UniProt P23977), sequence (P23977 whole entry): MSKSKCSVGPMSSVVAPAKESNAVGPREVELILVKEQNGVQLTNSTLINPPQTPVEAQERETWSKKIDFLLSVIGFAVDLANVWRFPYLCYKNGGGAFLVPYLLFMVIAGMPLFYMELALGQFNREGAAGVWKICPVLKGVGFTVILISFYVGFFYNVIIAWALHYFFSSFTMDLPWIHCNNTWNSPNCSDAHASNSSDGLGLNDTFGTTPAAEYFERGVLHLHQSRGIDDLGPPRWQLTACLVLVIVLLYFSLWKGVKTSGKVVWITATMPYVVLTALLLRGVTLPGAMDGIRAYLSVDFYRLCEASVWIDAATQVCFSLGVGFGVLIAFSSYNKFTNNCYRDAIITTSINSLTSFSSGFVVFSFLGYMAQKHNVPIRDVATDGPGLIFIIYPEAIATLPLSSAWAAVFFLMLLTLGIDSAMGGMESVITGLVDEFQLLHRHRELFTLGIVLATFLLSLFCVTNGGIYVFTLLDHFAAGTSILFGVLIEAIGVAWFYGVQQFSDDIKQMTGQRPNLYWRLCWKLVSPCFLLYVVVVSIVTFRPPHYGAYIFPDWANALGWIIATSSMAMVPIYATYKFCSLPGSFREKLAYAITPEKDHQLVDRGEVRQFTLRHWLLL
Sodium-dependent serotonin transporter (Rattus norvegicus, UniProt P31652), sequence (P31652 whole entry): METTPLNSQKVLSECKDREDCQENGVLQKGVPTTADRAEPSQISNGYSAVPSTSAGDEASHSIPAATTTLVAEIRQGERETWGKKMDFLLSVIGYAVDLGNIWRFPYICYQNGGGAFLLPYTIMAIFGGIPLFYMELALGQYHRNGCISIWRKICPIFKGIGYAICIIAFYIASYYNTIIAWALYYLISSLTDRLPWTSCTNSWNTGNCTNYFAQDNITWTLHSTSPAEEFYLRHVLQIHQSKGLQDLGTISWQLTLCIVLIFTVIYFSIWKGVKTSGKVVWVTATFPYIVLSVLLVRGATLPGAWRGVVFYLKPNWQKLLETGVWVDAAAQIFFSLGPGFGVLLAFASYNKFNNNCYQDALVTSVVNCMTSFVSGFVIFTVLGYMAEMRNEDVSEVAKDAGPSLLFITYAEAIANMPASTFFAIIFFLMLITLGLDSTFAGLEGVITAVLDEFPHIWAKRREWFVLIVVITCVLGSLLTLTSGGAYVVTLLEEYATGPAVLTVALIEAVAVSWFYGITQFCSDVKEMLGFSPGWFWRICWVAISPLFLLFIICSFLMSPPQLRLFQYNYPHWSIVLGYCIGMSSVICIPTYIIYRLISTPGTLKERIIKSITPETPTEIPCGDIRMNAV
Sodium-dependent dopamine transporter (Homo sapiens, UniProt Q01959), sequence (Q01959 whole entry): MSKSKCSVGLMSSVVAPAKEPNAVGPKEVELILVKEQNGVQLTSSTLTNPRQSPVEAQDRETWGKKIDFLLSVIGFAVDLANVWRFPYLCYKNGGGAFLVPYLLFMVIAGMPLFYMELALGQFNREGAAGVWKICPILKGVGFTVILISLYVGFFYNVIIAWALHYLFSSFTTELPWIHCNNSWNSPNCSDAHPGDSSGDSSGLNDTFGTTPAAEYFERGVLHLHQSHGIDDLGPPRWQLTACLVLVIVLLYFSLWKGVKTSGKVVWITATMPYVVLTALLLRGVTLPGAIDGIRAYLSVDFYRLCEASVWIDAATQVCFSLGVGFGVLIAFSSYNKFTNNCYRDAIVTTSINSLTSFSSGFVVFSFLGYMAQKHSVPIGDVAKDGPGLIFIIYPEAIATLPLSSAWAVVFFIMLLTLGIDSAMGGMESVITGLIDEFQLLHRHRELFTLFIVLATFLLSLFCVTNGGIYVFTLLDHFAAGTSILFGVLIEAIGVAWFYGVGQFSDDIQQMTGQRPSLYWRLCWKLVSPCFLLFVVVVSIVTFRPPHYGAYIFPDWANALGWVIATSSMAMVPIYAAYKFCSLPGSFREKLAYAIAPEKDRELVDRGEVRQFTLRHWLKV
Sodium-dependent serotonin transporter (Homo sapiens, UniProt P31645), sequence (P31645 whole entry): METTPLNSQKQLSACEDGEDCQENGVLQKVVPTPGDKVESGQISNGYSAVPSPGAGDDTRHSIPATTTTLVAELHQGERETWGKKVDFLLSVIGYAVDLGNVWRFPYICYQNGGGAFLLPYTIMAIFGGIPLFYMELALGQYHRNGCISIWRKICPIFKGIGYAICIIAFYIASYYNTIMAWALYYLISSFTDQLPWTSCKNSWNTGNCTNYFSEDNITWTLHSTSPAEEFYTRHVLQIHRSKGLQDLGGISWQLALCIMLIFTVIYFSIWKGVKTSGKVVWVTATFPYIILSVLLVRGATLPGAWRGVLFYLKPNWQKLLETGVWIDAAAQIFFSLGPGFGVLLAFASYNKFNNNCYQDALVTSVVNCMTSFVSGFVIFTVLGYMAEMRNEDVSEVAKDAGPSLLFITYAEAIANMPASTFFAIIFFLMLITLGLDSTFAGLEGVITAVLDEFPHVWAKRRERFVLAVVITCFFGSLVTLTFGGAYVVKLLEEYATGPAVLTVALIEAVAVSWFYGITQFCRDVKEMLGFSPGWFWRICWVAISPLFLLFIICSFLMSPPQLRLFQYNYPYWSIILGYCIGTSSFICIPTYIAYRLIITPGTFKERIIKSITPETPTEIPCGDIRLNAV
Sodium-dependent noradrenaline transporter, sequence (P23975 whole entry): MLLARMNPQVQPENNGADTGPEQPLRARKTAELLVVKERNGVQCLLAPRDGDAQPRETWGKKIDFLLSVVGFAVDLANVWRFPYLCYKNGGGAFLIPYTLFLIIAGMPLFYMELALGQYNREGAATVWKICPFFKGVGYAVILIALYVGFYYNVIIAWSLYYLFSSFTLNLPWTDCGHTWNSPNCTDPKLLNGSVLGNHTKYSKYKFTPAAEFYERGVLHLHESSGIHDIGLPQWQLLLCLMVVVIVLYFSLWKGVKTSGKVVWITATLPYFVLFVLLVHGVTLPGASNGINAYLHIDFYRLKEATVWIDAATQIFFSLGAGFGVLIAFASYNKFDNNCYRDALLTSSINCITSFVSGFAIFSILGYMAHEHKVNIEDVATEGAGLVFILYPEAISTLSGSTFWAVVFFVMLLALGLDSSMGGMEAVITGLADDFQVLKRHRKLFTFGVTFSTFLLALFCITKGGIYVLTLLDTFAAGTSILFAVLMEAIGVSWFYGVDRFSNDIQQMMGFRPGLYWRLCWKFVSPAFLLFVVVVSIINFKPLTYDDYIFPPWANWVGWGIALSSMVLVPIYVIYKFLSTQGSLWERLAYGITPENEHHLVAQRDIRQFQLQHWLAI
Voltage-gated inwardly rectifying potassium channel KCNH2, sequence (Q12809 whole entry): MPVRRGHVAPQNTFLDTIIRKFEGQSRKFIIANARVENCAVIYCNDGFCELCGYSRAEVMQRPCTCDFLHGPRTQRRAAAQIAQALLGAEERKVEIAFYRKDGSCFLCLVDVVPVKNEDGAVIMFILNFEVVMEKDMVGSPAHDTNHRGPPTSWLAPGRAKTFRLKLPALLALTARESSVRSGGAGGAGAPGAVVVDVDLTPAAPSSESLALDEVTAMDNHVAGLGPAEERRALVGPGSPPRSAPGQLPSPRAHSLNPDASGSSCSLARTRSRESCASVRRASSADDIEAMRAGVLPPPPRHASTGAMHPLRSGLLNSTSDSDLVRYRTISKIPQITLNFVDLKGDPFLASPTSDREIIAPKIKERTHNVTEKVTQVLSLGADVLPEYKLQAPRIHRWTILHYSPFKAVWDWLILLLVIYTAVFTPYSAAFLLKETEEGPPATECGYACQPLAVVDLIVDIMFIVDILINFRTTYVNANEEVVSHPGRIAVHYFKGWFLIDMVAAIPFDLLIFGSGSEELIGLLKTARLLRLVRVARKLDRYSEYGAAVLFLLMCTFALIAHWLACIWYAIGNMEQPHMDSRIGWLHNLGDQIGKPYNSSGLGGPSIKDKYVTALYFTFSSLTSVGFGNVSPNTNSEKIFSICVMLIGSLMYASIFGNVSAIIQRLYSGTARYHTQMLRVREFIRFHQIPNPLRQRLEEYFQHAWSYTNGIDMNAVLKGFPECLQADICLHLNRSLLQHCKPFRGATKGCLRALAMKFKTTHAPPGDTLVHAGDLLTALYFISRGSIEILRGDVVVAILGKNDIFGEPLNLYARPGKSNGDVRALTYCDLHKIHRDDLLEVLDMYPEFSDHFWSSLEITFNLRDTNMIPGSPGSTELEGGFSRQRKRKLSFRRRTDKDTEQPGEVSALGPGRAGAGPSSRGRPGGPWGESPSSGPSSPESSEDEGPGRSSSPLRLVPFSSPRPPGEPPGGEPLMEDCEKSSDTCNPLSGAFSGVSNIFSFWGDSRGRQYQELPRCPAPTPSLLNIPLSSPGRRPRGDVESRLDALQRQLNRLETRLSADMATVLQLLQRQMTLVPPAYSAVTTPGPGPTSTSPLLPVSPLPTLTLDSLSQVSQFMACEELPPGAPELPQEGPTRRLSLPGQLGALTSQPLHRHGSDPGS

Row | Compound | IC50 [6] [nM] | IC50 [7] [nM] | IC50 [8] [nM] | other results
1 | O=C(O)CC[C@@H](CSc1ccc(Cc2ccccc2)cc1)NC(=O)CCCCCCc1ccccc1 | – | – | – | IC50 [1]: 21 nM
2 | COC(=O)[C@H](CCCCNC(=O)CN(CC(=O)CNc1ccc(OC)cc1)C(=O)C1CCCC(C(=O)N(CC(=O)NCCCC[C@H](NC(=O)OCc2ccccc2)C(=O)OC)CC(=O)NCc2ccc(OC)cc2)C1)NC(=O)OCc1ccccc1 (some centres not stated) | – | – | – | Activity [2]: 33%
3 | CC(C)C(C)[C@]1(c2ccc3ccccc3c2)CC[C@](C)(O)CC1 (some centres not stated) | – | – | – | IC50 [3]: 21 nM; IC50 [4]: 18 nM; IC50 [5]: 33 nM
4 | CN1C2CCC1CC(Oc1ccc3cc(-c4ccoc4)c(=O)oc3c1)C2 (configuration not stated) | 2.9 | 70 | 3.8 | –
5 | Cc1ccc(C2CC3CCC(C2)N3C)cc1Br (configuration not stated) | 1.4 | 13 | 15 | –
6 | CN1C2CCC1CC(c1ccc3ccccc3c1)C2 (configuration not stated) | 0.23 | 34 | 18 | –
7 | COc1cc2ccc(OC3CC4CCC(C3)N4C)cc2oc1=O (configuration not stated) | 10 | 9.9 | 0.48 | –
8 | CN(C)CC1(c2ccc(Cl)c(Cl)c2)CCCC(O)C1 (configuration not stated) | – | – | – | IC50 [3]: 13 nM
9 | CNC[C@]1(c2ccc3ccccc3c2)CC[C@@](C)(O)CC1 | – | – | – | IC50 [3]: 40 nM; IC50 [4]: 11 nM
10 | CC1=NN(c2ccc(C)c(C)c2)C(=O)/C1=N\Nc1cccc(-c2cccc(C(=O)O)c2)c1O [ELTROMBOPAG] | – | – | – | IC50 [9]: 690 nM
11 | CCc1c(C(=O)C(N)=O)c2c(OCC(=O)O)cccc2n1Cc1ccccc1 [VARESPLADIB] | – | – | – | IC50 [10]: 9 nM
